Measurements: US20200069648A1, “HALOALLYLAMINE PYRAZOLE DERIVATIVE INHIBITORS OF LYSYL OXIDASES AND USES THEREOF” (Pharmaxis Ltd., priority 2017, published 2020)
Counter-ions that a name gives are not always drawn.

Columns and labels:
[1] = molecular target: T1, human recombinant SSAO/VAP-1 (Homo sapiens, UniProt Q16853); assay: Human recombinant SSAO/VAP-1 amine oxidase inhibition; assay type: biochemical; conditions: 30 min preincubation at 37° C., 600 μM benzylamine
T1 construct: a cloned cDNA template corresponding to residues 34-763 of human SSAO/VAP-1; TEV cleavage site (N); made in house
T1 sequence (Q16853 34-763): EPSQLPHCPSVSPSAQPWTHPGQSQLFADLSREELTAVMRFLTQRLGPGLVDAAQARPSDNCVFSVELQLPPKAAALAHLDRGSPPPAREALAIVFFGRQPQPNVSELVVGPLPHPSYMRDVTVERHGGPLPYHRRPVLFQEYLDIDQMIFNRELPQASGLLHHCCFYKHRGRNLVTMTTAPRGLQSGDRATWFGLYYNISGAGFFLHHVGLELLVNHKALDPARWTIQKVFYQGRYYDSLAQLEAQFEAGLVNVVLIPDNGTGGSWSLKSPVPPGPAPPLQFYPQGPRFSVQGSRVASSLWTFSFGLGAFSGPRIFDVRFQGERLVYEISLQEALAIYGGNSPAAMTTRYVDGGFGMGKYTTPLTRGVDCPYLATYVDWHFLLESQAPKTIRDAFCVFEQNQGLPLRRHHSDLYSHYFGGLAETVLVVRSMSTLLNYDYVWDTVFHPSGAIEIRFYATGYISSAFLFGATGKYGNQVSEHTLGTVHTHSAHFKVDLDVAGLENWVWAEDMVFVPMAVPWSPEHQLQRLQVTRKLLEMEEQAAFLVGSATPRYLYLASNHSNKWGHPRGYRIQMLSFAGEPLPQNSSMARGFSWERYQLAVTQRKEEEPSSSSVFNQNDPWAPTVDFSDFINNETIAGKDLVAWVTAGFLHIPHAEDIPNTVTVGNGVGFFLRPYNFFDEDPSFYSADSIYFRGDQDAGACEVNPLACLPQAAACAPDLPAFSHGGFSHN
Protocol: Method to Determine the Ability of Compounds of Formula I to Inhibit Human Recombinant SSAO/VAP-1
Human recombinant SSAO/VAP-1 amine oxidase activity was determined using the coupled colorimetric method as described for monoamine oxidase, copper-containing amine oxidases and related enzymes (Holt A. and Palcic M., A peroxidase-coupled continuous absorbance plate-reader assay for flavin monoamine oxidases, copper-containing amine oxidases and related enzymes. Nat Protoc 2006; 1: 2498-2505). Briefly, a cloned cDNA template corresponding to residues 34-763 of human SSAO/VAP-1, and incorporating a mouse Ig kappa (κ) signal sequence, N-terminal flag epitope tag and tobacco etch virus (TEV) cleavage site, was assembled in a mammalian expression vector (pLO-CMV) by Geneart AG. This vector containing human SSAO/VAP-1 residues was transfected into CHO-K1 glycosylation mutant cell line, Lec 8. A clone stably expressing human SSAO/VAP-1 was isolated and cultured in large scale. Active human SSAO/VAP-I was purified and recovered using immunoaffinity chromatography. This was used as the source for SSAO/VAP-1 activity. A high-throughput colorimetric assay was developed using either 96 or 384 well format. Briefly, in a standard 96 well plate assay 50 μL of purified human SSAO/VAP-1 (0.25 μg/mL) in 0.1 M sodium phosphate buffer (pH 7.4) was added into each well. Test compounds were dissolved in DMSO and tested in a Concentration Response Curve (CRC) with 4-11 data points, typically in the micromolar or nanomolar range after incubation with human SSAO/VAP-1 for 30 min at 37° C. After 30 min incubation, 50 μL of the reaction mixture containing 600 μM benzylamine (Sigma Aldrich), 120 μM Amplex Red (Sigma Aldrich) and 1.5 U/mL horseradish peroxidase (Sigma Aldrich) prepared in 0.1 M sodium phosphate buffer (pH 7.4) were added to the corresponding well. The fluorescence unit (RFU) was read every 2.5 min for 30 min at 37° C. excitation 565 nm and emission 590 (Optima; BMG labtech). The slope of the kinetics for each well was calculated using MARS data analysis software (BMG labtech) and this value was used to deduce the IC50 value (Dotmatics).

[2] = molecular target: T2, Bovine LOX (Bos taurus, UniProt P33072); assay: LOX amine oxidase inhibition, peroxidase-coupled Amplex Red assay; assay type: biochemical; conditions: 30 min preincubation at 37° C., putrescine substrate
T2 sequence (P33072 170-418): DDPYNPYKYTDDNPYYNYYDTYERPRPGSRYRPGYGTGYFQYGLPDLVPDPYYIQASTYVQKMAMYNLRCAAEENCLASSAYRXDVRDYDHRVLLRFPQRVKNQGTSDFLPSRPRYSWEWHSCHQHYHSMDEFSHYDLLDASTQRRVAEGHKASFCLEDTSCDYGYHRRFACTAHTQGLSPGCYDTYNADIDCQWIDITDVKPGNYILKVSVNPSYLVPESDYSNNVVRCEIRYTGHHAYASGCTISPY
Source text: Method to Determine the Ability of Compounds of the Invention to Inhibit LOX and LOXL1-4 from Different Sources
Lysyl oxidase (LOX) is an extracellular copper dependent enzyme which oxidizes peptidyl lysine and hydroxylysine residues in collagen and lysine residues in elastin to produce peptidyl alpha-aminoadipic-delta-semialdehydes. […] There are five LOX family members; these are LOX, LOXL1, LOXL2, LOXL3 and LOXL4. LOX and LOXL family members can be acquired as recombinant active proteins from commercial sources, or extracted from animal tissues like bovine aorta, tendons, pig skin; or prepared from cell cultures. The inhibitory effects of the compounds of the present invention were tested against the given LOX-LOXL preparation using a high-throughput coupled colorimetric method (Holt A. and Palcic M., A peroxidase-coupled continuous absorbance plate-reader assay for flavin monoamine oxidases, copper-containing amine oxidases and related enzymes. Nat. Protoc. 2006; 1: 2498-2505). The assay was developed using either 384 or 96 well format. Briefly, in a standard 384 well plate assay 25 μL of a dilution of any of the isoenzymes and orthologues in 1.2 M urea, 50 mM sodium borate buffer (pH 8.2) were added into each well in the presence of 1 μM mofegiline and 0.5 mM pargyline (to inhibit SSAO and MAO-B and MAO-A, respectively). […] Twenty five μL of a reaction mixture containing twice the KM concentration of putrescine (Sigma Aldrich, e.g. 20 mM for LOX, or 10 mM for LOXL2 and LOXL3), 120 μM Amplex Red (Sigma Aldrich) and 1.5 U/mL horseradish peroxidase (Sigma Aldrich) prepared in 1.2 M urea, 50 mM sodium borate buffer (pH 8.2) were then added to the corresponding wells. The above volumes were doubled in the case of 96 wells plate. The fluorescence (RFU) was read every 2.5 min for 30 min at a range of temperatures from 37° to 45° C., excitation 565 nm and emission 590 (Optima; BMG labtech). The slope of the kinetics for each well was calculated using MARS data analysis software (BMG labtech) and this value was used to deduce the IC50 value (Dotmatics).

Row | Structure (SMILES) | IC50 [1] [µM] | IC50 [2] [µM]
1 | Cc1nn(C/C(F)=C/CN)c(C(C)O)c1Cc1ccc(S(=O)(=O)N(C)C)c(Cl)c1 (single isomer, unassigned) [Compound 52, (Z)-4-((1-(4-amino-2-fluorobut-2-en-1-yl)-5-(1-hydroxyethyl)-3-methyl-1H-pyrazol-4-yl)methyl)-2-chloro-N,N-dimethylbenzenesulfonamide hydrochloride] | > 30 | > 10
2 | N#CCCN [BAPN, β-aminopropionitrile, reference compound] | > 100 | < 1
3 | CN(C)S(=O)(=O)c1ccc(-c2cnn(C/C(F)=C/CN)c2)cc1 [Compound 1, (Z)-4-(1-(4-amino-2-fluorobut-2-en-1-yl)-1H-pyrazol-4-yl)-N,N-dimethyl benzenesulfonamide hydrochloride] | < 10 | < 10
4 | Cc1nn(C/C(F)=C/CN)c(C)c1Cc1ccc(S(C)(=O)=O)cc1 [Compound 4, (Z)-4-(3,5-dimethyl-4-(4-(methylsulfonyl)benzyl)-1H-pyrazol-1-yl)-3-fluorobut-2-en-1-amine hydrochloride] | > 30 | < 10
5 | Cc1nn(C/C(F)=C/CN)c(C)c1Cc1ccc(S(=O)(=O)N2CCOCC2)cc1 [Compound 6, (Z)-4-(3,5-dimethyl-4-(4-(morpholinosulfonyl)benzyl)-1H-pyrazol-1-yl)-3-fluorobut-2-en-1-amine hydrochloride] | > 30 | < 10
6 | Cc1nn(C/C(F)=C/CN)c(C)c1Cc1ccc(S(=O)(=O)N2CCCC2)cc1 [Compound 7, (Z)-4-(3,5-dimethyl-4-(4-(pyrrolidin-1-ylsulfonyl)benzyl)-1H-pyrazol-1-yl)-3-fluorobut-2-en-1-amine hydrochloride] | > 10 | < 10
7 | Cc1nn(C/C(F)=C/CN)c(C)c1Cc1ccc(S(=O)(=O)N(C)C(C)C)cc1 [Compound 8, (Z)-4-((1-(4-amino-2-fluorobut-2-en-1-yl)-3,5-dimethyl-1H-pyrazol-4-yl)methyl)-N-isopropyl-N-methylbenzenesulfonamide hydrochloride] | > 10 | < 10

Continued, values first:

Row | IC50 [1] [µM] | IC50 [2] [µM] | Structure (SMILES)
8 | > 30 | > 10 | Cc1nn(C/C(F)=C/CN)c(C(C)O)c1Cc1ccc(S(=O)(=O)N(C)C)c(Cl)c1 (single isomer, unassigned) [Compound 53, (Z)-4-((1-(4-amino-2-fluorobut-2-en-1-yl)-5-(1-hydroxyethyl)-3-methyl-1H-pyrazol-4-yl)methyl)-2-chloro-N,N-dimethylbenzenesulfonamide hydrochloride]
9 | > 30 | < 10 | Cc1nn(C/C(F)=C/CN)c(C)c1Cc1ccc(S(=O)(=O)N(C)C)cc1 [Compound 2, (Z)-4-((1-(4-amino-2-fluorobut-2-en-1-yl)-3,5-dimethyl-1H-pyrazol-4-yl)methyl)-N,N-dimethylbenzenesulfonamide hydrochloride]
10 | > 30 | < 10 | Cc1nn(C/C(F)=C/CN)c(C)c1Cc1ccc(S(=O)(=O)N(C)C)cc1Cl [Compound 3, (Z)-4-((1-(4-amino-2-fluorobut-2-en-1-yl)-3,5-dimethyl-1H-pyrazol-4-yl)methyl)-3-chloro-N,N-dimethylbenzenesulfonamide hydrochloride]
11 | > 30 | > 10 | Cc1nn(C/C(F)=C/CN)c(C)c1Cc1cccc(S(=O)(=O)N(C)C)c1 [Compound 5, (Z)-3-((1-(4-amino-2-fluorobut-2-en-1-yl)-3,5-dimethyl-1H-pyrazol-4-yl)methyl)-N,N-dimethyl benzenesulfonamide hydrochloride]
12 | > 10 | < 10 | Cc1nn(C/C(F)=C/CN)c(C)c1Cc1ccc(S(=O)(=O)N(C)C)c2ccccc12 [Compound 9, (Z)-4-((1-(4-amino-2-fluorobut-2-en-1-yl)-3,5-dimethyl-1H-pyrazol-4-yl)methyl)-N,N-dimethyl naphthalene-1-sulfonamide hydrochloride]
